pEC50: −log10 of the molar value.
Target: T1, human GPR119 (Homo sapiens, UniProt Q8TDV5)
T1 construct: expressed in transfected cells
T1 sequence (Q8TDV5 1-335): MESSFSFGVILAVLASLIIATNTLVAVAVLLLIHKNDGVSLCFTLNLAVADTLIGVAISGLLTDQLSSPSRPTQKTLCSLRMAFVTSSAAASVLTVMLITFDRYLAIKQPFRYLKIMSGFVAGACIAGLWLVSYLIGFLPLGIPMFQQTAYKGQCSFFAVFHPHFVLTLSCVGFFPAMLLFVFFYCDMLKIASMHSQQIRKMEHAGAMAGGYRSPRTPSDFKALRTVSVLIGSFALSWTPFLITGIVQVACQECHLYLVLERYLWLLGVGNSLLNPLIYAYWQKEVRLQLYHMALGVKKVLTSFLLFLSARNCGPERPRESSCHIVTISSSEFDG
Assay: Functional cellular assay measuring GPR119-mediated cAMP release (HTRF)
Type: cell-based
Settings: HEK-293 cell line stably expressing recombinant human GPR119; cAMP response, 30 minutes at room temperature
Protocol: Functional Cellular Assays Measuring GPR119-Mediated cAMP Release
Compounds of the invention, which are agonists of GPR119, were characterized by functional assays measuring the cAMP response of HEK-293 cell lines stably expressing recombinant GPR119 from man, mouse or rat, or by using a hamster cell line HIT-T15 expressing GPR119 endogenously. The cAMP content was determined using a kit based on homogenous time-resolved fluorescence (HTRF) from Cisbio Corp. (cat. no. 62AM4PEC). For preparation, cells were split into T175 culture flasks and grown to near confluency in medium (DMEM/10% FCS for HEK-293 cells, and F-12K medium/10% horse serum/2.5% FCS for HIT-T15 cells, respectively). Medium was then removed and cells washed with PBS lacking calcium and magnesium ions, followed by proteinase treatment with accutase (Sigma-Aldrich, cat. no. A6964). Detached cells were washed and resuspended in assay buffer (1×HBSS; 20 mM HEPES, 0.1% BSA, 2 mM IBMX) and cellular density determined. They were then diluted to 400000 cells/mL and 25 μL-aliquots dispensed to the wells of 96-well plates. For measurement, 25 μL of test compound in assay buffer was added and incubated for 30 minutes at room temperature. After addition of HTRF reagents diluted in lysis buffer, the plates were incubated for 1 hour, followed by measuring the fluorescence ratio at 665 vs. 620 nm. Potency of the agonists was quantified by determining the concentrations that caused 50% of the maximal response/activation (EC50). See Table 4 for exemplary data obtained using the cell line expressing human GPR119.

Row | pEC50 | Compound
1 | 6.44 | O=C(O)CC1Cc2c(F)cc(N3CC[C@@H](Oc4ccc(OCC5CC5)nc4)C3=O)cc2C1=O (stereo partly drawn) [Example 2-01, {6-[(R)-3-(6-cyclopropylmethoxy-pyridin-3-yloxy)-2-oxo-pyrrolidin-1-yl]-4-fluoro-1-oxo-indan-2-yl}-acetic acid]
2 | 6.87 | O=C(O)CC1CC(=O)c2cc(N3CC[C@@H](Oc4ccc(OCC5CC5)nc4)C3=O)ccc21 (stereo partly drawn) [Example 2-02, {5-[(R)-3-(6-Cyclopropylmethoxy-pyridin-3-yloxy)-2-oxo-pyrrolidin-1-yl]-3-oxo-indan-1-yl}-acetic acid]
3 | 6.66 | O=C(O)CC1CC(=O)c2cc(N3CC[C@@H](Oc4ccc(OCC5CC5)nc4)C3=O)cc(F)c21 (stereo partly drawn) [Example 2-03, 2-[5-[(3R)-3-[[6-(cyclopropylmethoxy)-3-pyridyl]oxy]-2-oxo-pyrrolidin-1-yl]-7-fluoro-3-oxo-indan-1-yl]acetic acid]
4 | 6.30 | O=C(O)C[C@H]1CC(=O)c2cc(N3CC[C@@H](Oc4ccc(OCC5CC5)nc4)C3=O)ccc21 [Example 2-04, 2-[5-[(3R)-3-[[6-(cyclopropylmethoxy)-3-pyridyl]oxy]-2-oxo-pyrrolidin-1-yl]-3-oxo-indan-1-yl]acetic acid]
5 | 5.70 | O=C(O)C[C@@H]1CC(=O)c2cc(N3CC[C@@H](Oc4ccc(OCC5CC5)nc4)C3=O)ccc21 [Example 2-05, 2-[(1S)-5-[(3R)-3-[[6-(cyclopropylmethoxy)-3-pyridyl]oxy]-2-oxo-pyrrolidin-1-yl]-3-oxo-indan-1-yl]acetic acid]
6 | 7.09 | CN(C)C(=O)CC1CC(=O)c2cc(N3CC[C@@H](Oc4ccc(OCC5CC5)nc4)C3=O)ccc21 (stereo partly drawn) [Example 3-01, 2-[5-[(3R)-3-[[6-(cyclopropylmethoxy)-3-pyridyl]oxy]-2-oxo-pyrrolidin-1-yl]-3-oxo-indan-1-yl]-N,N-dimethyl-acetamide]
7 | 6.73 | CNC(=O)CC1CC(=O)c2cc(N3CC[C@@H](Oc4ccc(OCC5CC5)nc4)C3=O)ccc21 (stereo partly drawn) [Example 3-02, 2-[5-[(3R)-3-[[6-(cyclopropylmethoxy)-3-pyridyl]oxy]-2-oxo-pyrrolidin-1-yl]-3-oxo-indan-1-yl]-N-methyl-acetamide]
8 | 6.47 | O=C(CC1CC(=O)c2cc(N3CC[C@@H](Oc4ccc(OCC5CC5)nc4)C3=O)ccc21)NC1CC1 (stereo partly drawn) [Example 3-03, N-cyclopropyl-2-[5-[(3R)-3-[[6-(cyclopropylmethoxy)-3-pyridyl]oxy]-2-oxo-pyrrolidin-1-yl]-3-oxo-indan-1-yl]acetamide]
9 | 6.49 | NC(=O)CC1CC(=O)c2cc(N3CC[C@@H](Oc4ccc(OCC5CC5)nc4)C3=O)ccc21 (stereo partly drawn) [Example 3-04, 2-[5-[(3R)-3-[[6-(cyclopropylmethoxy)-3-pyridyl]oxy]-2-oxo-pyrrolidin-1-yl]-3-oxo-indan-1-yl]acetamide]
10 | 7.11 | NC(=O)CC1Cc2c(F)cc(N3CC[C@@H](Oc4ccc(OCC5CC5)nc4)C3=O)cc2C1=O (stereo partly drawn) [Example 3-05, 2-[6-[(3R)-3-[[6-(cyclopropylmethoxy)-3-pyridyl]oxy]-2-oxo-pyrrolidin-1-yl]-4-fluoro-1-oxo-indan-2-yl]acetamide]

Further lines, the compound ahead of its results:

Row | Compound | pEC50
11 | O=C1CC(CCO)c2ccc(N3CC[C@@H](Oc4ccc(Oc5ccc(F)cc5)nc4)C3=O)cc21 (stereo partly drawn) [Example 1-01, (3R)-3-[[6-(4-Fluorophenoxy)-3-pyridyl]oxy]-1-[1-(2-hydroxyethyl)-3-oxo-indan-5-yl]pyrrolidin-2-one] | 6.51
12 | COC(=O)CC1Cc2ccc(N3CCC(Oc4ccc(OCCC(C)C)cc4)C3=O)cc2C1=O (stereo not shown) [Example 1-02, methyl 2-[6-[3-(4-isopentyloxyphenoxy)-2-oxo-pyrrolidin-1-yl]-1-oxo-indan-2-yl]acetate] | 6.58
13 | COC(=O)CC1CC(=O)c2cc(N3CC[C@@H](Oc4ccc(Oc5ccc(F)cc5)cc4)C3=O)ccc21 (stereo partly drawn) [Example 1-03, methyl 2-[5-[(3R)-3-[4-(4-fluorophenoxy)phenoxy]-2-oxo-pyrrolidin-1-yl]-3-oxo-indan-1-yl]acetate] | 6.95
14 | COC(=O)CC1Cc2c(F)cc(N3CC[C@@H](Oc4ccc(OCC5CC5)nc4)C3=O)cc2C1=O (stereo partly drawn) [Example 1-04, {6-[(R)-3-(6-cyclopropylmethoxy-pyridin-3-yloxy)-2-oxo-pyrrolidin-1-yl]-4-fluoro-1-oxo-indan-2-yl}-acetic acid methyl ester] | 7.85
15 | O=C1c2cc(N3CC[C@@H](Oc4ccc(OCC5CC5)nc4)C3=O)cc(F)c2CC1CCO (stereo partly drawn) [Example 1-05, (3R)-3-[[6-(cyclopropylmethoxy)-3-pyridyl]oxy]-1-[7-fluoro-2-(2-hydroxyethyl)-3-oxo-indan-5-yl]pyrrolidin-2-one] | 6.63
16 | COC(=O)CC1CC(=O)c2cc(N3CC[C@@H](Oc4ccc(OCC5CC5)nc4)C3=O)ccc21 (stereo partly drawn) [Example 1-06, methyl 2-[5-[(3R)-3-[[6-(cyclopropylmethoxy)-3-pyridyl]oxy]-2-oxo-pyrrolidin-1-yl]-3-oxo-indan-1-yl]acetate] | 7.72
17 | COC(=O)CC1(CC(=O)O)Cc2c(F)cc(N3CC[C@@H](Oc4ccc(OCC5CC5)nc4)C3=O)cc2C1=O (stereo partly drawn) [Example 1-07, 2-[6-[(3R)-3-[[6-(cyclopropylmethoxy)-3-pyridyl]oxy]-2-oxo-pyrrolidin-1-yl]-4-fluoro-2-(2-methoxy-2-oxo-ethyl)-1-oxo-indan-2-yl]acetic acid] | 6.48
18 | O=C1CC(CCO)c2ccc(N3CC[C@@H](Oc4ccc(OCC5CC5)nc4)C3=O)cc21 (stereo partly drawn) [Example 1-08, (3R)-3-[[6-(cyclopropylmethoxy)-3-pyridyl]oxy]-1-[1-(2-hydroxyethyl)-3-oxo-indan-5-yl]pyrrolidin-2-one] | 7.10
19 | COC(=O)CC1CC(=O)c2cc(N3CC[C@@H](Oc4ccc(OCC5CC5)nc4)C3=O)cc(F)c21 (stereo partly drawn) [Example 1-09, methyl 2-[5-[(3R)-3-[[6-(cyclopropylmethoxy)-3-pyridyl]oxy]-2-oxo-pyrrolidin-1-yl]-7-fluoro-3-oxo-indan-1-yl]acetate] | 7.92
20 | COC(=O)C1Cc2ccc(N3CC[C@@H](Oc4ccc(OCC5CC5)nc4)C3=O)cc2C1=O (stereo partly drawn) [Example 1-10, methyl 6-[(3R)-3-[[6-(cyclopropylmethoxy)-3-pyridyl]oxy]-2-oxo-pyrrolidin-1-yl]-1-oxo-indane-2-carboxylate] | 7.39
21 | COC(=O)CC1CC(=O)c2cc(N3CC[C@@H](Oc4ccc(OC5CC5)nc4)C3=O)cc(F)c21 (stereo partly drawn) [Example 1-11, methyl 2-[5-[(3R)-3-[[6-(cyclopropoxy)-3-pyridyl]oxy]-2-oxo-pyrrolidin-1-yl]-7-fluoro-3-oxo-indan-1-yl]acetate] | 7.42
22 | COC(=O)CC1Cc2ccc(N3CC[C@@H](Oc4ccc(OCC5CC5)nc4)C3=O)cc2C1=O (stereo partly drawn) [Example 1-12, methyl 2-[6-[(3R)-3-[[6-(cyclopropylmethoxy)-3-pyridyl]oxy]-2-oxo-pyrrolidin-1-yl]-1-oxo-indan-2-yl]acetate] | 7.54
23 | COC(=O)CC1CC(=O)c2cc(N3CC[C@@H](Oc4ccc(OC5CC5)nc4)C3=O)ccc21 (stereo partly drawn) [Example 1-13, methyl 2-[5-[(3R)-3-[[6-(cyclopropoxy)-3-pyridyl]oxy]-2-oxo-pyrrolidin-1-yl]-3-oxo-indan-1-yl]acetate] | 7.01
24 | COC(=O)C[C@@H]1CC(=O)c2cc(N3CC[C@@H](Oc4ccc(OCC5CC5)nc4)C3=O)ccc21 [Example 1-14, methyl 2-[(1S)-5-[(3R)-3-[[6-(cyclopropylmethoxy)-3-pyridyl]oxy]-2-oxo-pyrrolidin-1-yl]-3-oxo-indan-1-yl]acetate] | 7.72
25 | COC(=O)C[C@H]1CC(=O)c2cc(N3CC[C@@H](Oc4ccc(OCC5CC5)nc4)C3=O)ccc21 [Example 1-15, methyl 2-[(1R)-5-[(3R)-3-[[6-(cyclopropylmethoxy)-3-pyridyl]oxy]-2-oxo-pyrrolidin-1-yl]-3-oxo-indan-1-yl]acetate] | 7.80
26 | CN(C)C(=O)C1CC(=O)c2cc(N3CC[C@@H](Oc4ccc(OCC5CC5)nc4)C3=O)cc(F)c21 (stereo partly drawn) [Example 1-16, 5-[(3R)-3-[[6-(cyclopropylmethoxy)-3-pyridyl]oxy]-2-oxo-pyrrolidin-1-yl]-7-fluoro-N,N-dimethyl-3-oxo-indane-1-carboxamide] | 6.93
27 | O=C1CC(CO)c2c(F)cc(N3CC[C@@H](Oc4ccc(OCC5CC5)nc4)C3=O)cc21 (stereo partly drawn) [Example 1-17, (3R)-3-[[6-(cyclopropylmethoxy)-3-pyridyl]oxy]-1-[7-fluoro-1-(hydroxymethyl)-3-oxo-indan-5-yl]pyrrolidin-2-one] | 7.14
28 | O=C1CC(CO)c2ccc(N3CC[C@@H](Oc4ccc(OCC5CC5)nc4)C3=O)cc21 (stereo partly drawn) [Example 1-18, (3R)-3-[[6-(cyclopropylmethoxy)-3-pyridyl]oxy]-1-[1-(hydroxymethyl)-3-oxo-indan-5-yl]pyrrolidin-2-one] | 6.70

Source: patent US9896434B2, “Substituted indanone compounds as GPR119 modulators for the treatment of diabetes, obesity, dyslipidemia and related disorders” (SANOFI, priority 2014, dated 2018)
